Tests used:
[1] = target: T1, Recombinant human JAK1 catalytic domain (Homo sapiens, UniProt P23458); assay: JAK1 inhibition assay (polyGT substrate / Ulight-JAK1 peptide assay); assay type: biochemical; conditions: Comparative Compounds (Table VI)
T1 construct: Recombinant human JAK1 (catalytic domain, amino acids 866-1154; catalog number PV4774); purchased Invitrogen PV4774
Experimental: Recombinant human JAK1 catalytic domain (amino acids 850-1154; catalog number 08-144) was purchased from Carna Biosciences. 10 ng of JAK1 is incubated with 12.5 μg polyGT substrate (Sigma catalog number P0275) in kinase reaction buffer (15 mM Tris-HCl pH 7.5, 1 mM DTT, 0.01% Tween-20, 10 mM MgCl2, 2 μM non-radioactive ATP, 0.25 ρCi ^33P-gamma-ATP (GE Healthcare, catalog number AH9968) final concentrations) with or without 5 μL containing test compound or vehicle (DMSO, 1% final concentration), in a total volume of 25 μL, in a polypropylene 96-well plate (Greiner, V-bottom). After 45 min at 30° C., reactions are stopped by adding of 25 μL/well of 150 mM phosphoric acid. All of the terminated kinase reaction is transferred to prewashed (75 mM phosphoric acid) 96 well filter plates (Perkin Elmer catalog number 6005177) using a cell harvester (Perkin Elmer). Plates are washed 6 times with 300 μL per well of a 75 mM phosphoric acid solution and the bottom of the plates is sealed. 40 μL/well of Microscint-20 is added, the top of the plates is sealed and readout is performed using the Topcount (Perkin Elmer). Kinase activity is calculated by subtracting counts per min (cpm) obtained in the presence of a positive control inhibitor (10 μM staurosporine) from cpm obtained in the presence of vehicle. The ability of a test compound to inhibit this activity is determined as:
(§1) [formula] • RFU test compound=RFU determined for sample with test compound present • RFU control=RFU determined for sample with positive control inhibitor • RFU vehicle=RFU determined in the presence of vehicle
(§2) Dose dilution series are prepared for the compounds enabling the testing of dose-response effects in the JAK1 assay and the calculation of the IC50 for each compound. Each compound is routinely tested at concentration of 20 μM followed by a 1/3 serial dilution, 8 points (20 μM-6.67 μM-2.22 μM-740 nM-247 nM-82 nM-27 nM-9 nM) in a final concentration of 1% DMSO. When potency of compound series increased, more dilutions are prepared and/or the top concentration was lowered (e.g. 5 μM, 1 μM).
Recombinant human JAK1 (catalytic domain, amino acids 866-1154; catalog number PV4774) was purchased from Invitrogen. 1 ng of JAK1 was incubated with 20 nM Ulight-JAK1 (tyr1023) peptide (Perkin Elmer catalog number TRF0121) in kinase reaction buffer (25 mM MOPS pH6.8, 0.01% Brij-35, 5 mM MgCl2, 2 mM DTT, 7 μM ATP) with or without 4 μL containing test compound or vehicle (DMSO, 1% final concentration), in a total volume of 20 μL, in a white 384 Opti plate (Perkin Elmer, catalog number 6007290). After 60 min at room temperature, reactions were stopped by adding 20 μL/well of detection mixture (1× detection buffer (Perkin Elmer, catalog number CR97-100C), 0.5 nM Europium-anti-phosphotyrosine (PT66) (Perkin Elmer, catalog number AD0068), 10 mM EDTA). Readout is performed using the Envision with excitation at 320 nm and measuring emission at 615 nm (Perkin Elmer). Kinase activity was calculated by subtracting relative fluorescence units (RFU) obtained in the presence of a positive control inhibitor (10 μM staurosporine) from RFU obtained in the presence of vehicle. The ability of a test compound to inhibit this activity was determined as: Percentage inhibition=((RFU determined for sample with test compound present−RFU determined for sample with positive control inhibitor) divided by (RFU determined in the presence of vehicle−RFU determined for sample with positive control inhibitor))*100.
(§3) Dose dilution series were prepared for the compounds enabling the testing of dose-response effects in the JAK1 assay and the calculation of the IC50 for the compound. Each compound is routinely tested at concentration of 20 μM followed by a 1/5 serial dilution, 10 points in a final concentration of 1% DMSO. When potency of compound series increases, more dilutions are prepared and/or the top concentration are lowered (e.g. 5 μM, 1 μM). […]

[2] = target: T2, Recombinant human JAK2 catalytic domain (Homo sapiens, UniProt O60674); assay: JAK2 inhibition assay (polyGT substrate / Ulight-JAK1 peptide assay); assay type: biochemical; conditions: Comparative Compounds (Table VIII)
T2 construct: Recombinant human JAK2 catalytic domain (amino acids 808-1132; catalog number PV4210); GST; purchased Invitrogen PV4210
Experimental: Recombinant human JAK2 catalytic domain (amino acids 808-1132; catalog number PV4210) was purchased from Invitrogen. 0.025 mU of JAK2 is incubated with […] polyGT substrate (Sigma catalog number P0275) in kinase reaction buffer (5 mM MOPS pH 7.5, 9 mM MgAc, 0.3 mM EDTA, 0.06% Brij and 0.6 mM DTT, 1 μM non-radioactive ATP, 0.25 μCi ^33P-gamma-ATP (GE Healthcare, catalog number AH9968) final concentrations) with or without 5 μL containing test compound or vehicle (DMSO, 1% final concentration), in a total volume of 25 μL, in a polypropylene 96-well plate (Greiner, V-bottom). After 90 min at 30° C., reactions are stopped by adding of 25 μL/well of 150 mM phosphoric acid. All of the terminated kinase reaction is transferred to prewashed (75 mM phosphoric acid) 96 well filter plates (Perkin Elmer catalog number 6005177) using a cell harvester (Perkin Elmer). Plates are washed 6 times with 300 μL per well of a 75 mM phosphoric acid solution and the bottom of the plates is sealed. 40 μL/well of Microscint-20 is added, the top of the plates is sealed and readout is performed using the Topcount (Perkin Elmer). Kinase activity is calculated by subtracting counts per min (cpm) obtained in the presence of a positive control inhibitor (10 μM staurosporine) from cpm obtained in the presence of vehicle. The ability of a test compound to inhibit this activity is determined as:
as §1
as §2, with “JAK2” for “JAK1”, “is” for “was”
Recombinant human JAK2 (catalytic domain, amino acids 866-1154; catalog number PV4210) was purchased from Invitrogen. 0.0125 mU of JAK2 was incubated with 25 nM Ulight-JAK1 (tyr1023) peptide (Perkin Elmer catalog number TRF0121) in kinase reaction buffer (25 mM HEPES pH7.0, 0.01% Triton X-100, 7.5 mM MgCl2, 2 mM DTT, 7.5 μM ATP) with or without 4 μL containing test compound or vehicle (DMSO, 1% final concentration), in a total volume of 20 μL, in a white 384 Opti plate (Perkin Elmer, catalog number 6007290). After 60 min at room temperature, reactions were stopped by adding 20 μL/well of detection mixture (1× detection buffer (Perkin Elmer, catalog number CR97-100C), 0.5 nM Europium-anti-phosphotyrosine (PT66) (Perkin Elmer, catalog number AD0068), 10 mM EDTA). Readout is performed using the Envision with excitation at 320 nm and measuring emission at 615 nm (Perkin Elmer). Kinase activity was calculated by subtracting relative fluorescence units (RFU) obtained in the presence of a positive control inhibitor (10 μM staurosporine) from RFU obtained in the presence of vehicle. The ability of a test compound to inhibit this activity was determined as: Percentage inhibition=((RFU determined for sample with test compound present−RFU determined for sample with positive control inhibitor) divided by (RFU determined in the presence of vehicle−RFU determined for sample with positive control inhibitor))*100.
as §3, with “series are” for “series were”, “for compound” for “for the compounds”, “the JAK2” for “the JAK1”

T1 sequence (P23458 866-1154): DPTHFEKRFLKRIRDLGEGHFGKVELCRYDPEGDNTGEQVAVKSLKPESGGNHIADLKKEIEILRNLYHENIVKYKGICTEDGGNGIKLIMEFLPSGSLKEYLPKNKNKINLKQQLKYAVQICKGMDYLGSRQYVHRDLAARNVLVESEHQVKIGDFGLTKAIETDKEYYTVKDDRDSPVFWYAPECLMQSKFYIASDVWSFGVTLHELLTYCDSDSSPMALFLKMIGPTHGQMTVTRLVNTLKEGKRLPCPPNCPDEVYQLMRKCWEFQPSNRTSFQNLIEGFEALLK
T2 sequence (O60674 808-1132): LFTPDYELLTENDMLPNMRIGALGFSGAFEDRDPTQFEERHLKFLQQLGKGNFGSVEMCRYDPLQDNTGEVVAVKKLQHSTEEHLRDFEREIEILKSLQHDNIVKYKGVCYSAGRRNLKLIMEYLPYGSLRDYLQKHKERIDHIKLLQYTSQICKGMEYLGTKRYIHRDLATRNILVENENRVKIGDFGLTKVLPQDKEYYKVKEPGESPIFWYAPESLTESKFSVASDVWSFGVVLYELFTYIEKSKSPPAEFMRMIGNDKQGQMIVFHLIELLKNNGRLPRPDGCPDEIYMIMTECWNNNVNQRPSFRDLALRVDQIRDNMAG

| IC50 [1] | IC50 [2] | Structure (SMILES) |
| --- | --- | --- |
| > 0.5 µM | > 0.5 µM | Cn1cnc2ccc(Nc3ccc(CC#N)cc3)cc21 [A, 2-[4-[(3-methylbenzimidazol-5-yl)amino]phenyl]acetonitrile, reference compound] |
| > 0.5 µM | > 0.5 µM | Cn1cnc2ccc(Nc3ccc4c(c3)OCCO4)cc21 [B, reference compound] |

Source: patent US10179771B2 (GALAPAGOS NV, priority 2014, dated 2019)
